What was measured:
panel of 442 kinases [1] = biological target: T1, panel of 442 kinases (Homo sapiens, UniProt Q9UKI8); assay type: binding; parameters: KINOMEscan: ABL1(F317L)-phosphorylated / KINOMEscan: ABL1(H396P)-nonphosphorylated / KINOMEscan: ABL1(H396P)-phosphorylated / KINOMEscan: ABL1(M351T)-phosphorylated / KINOMEscan: ABL1(T315I)-phosphorylated / KINOMEscan: ABL1-nonphosphorylated / KINOMEscan: ABL1-phosphorylated / KINOMEscan: ACVR2A / KINOMEscan: ACVR2B / KINOMEscan: ADCK3 / KINOMEscan: ADCK4 / KINOMEscan: AKT1 / KINOMEscan: AKT3 / KINOMEscan: ALK / KINOMEscan: ARK5 / KINOMEscan: AURKA / KINOMEscan: AURKC / KINOMEscan: BIKE / KINOMEscan: BMPR1A / KINOMEscan: BMPR1B / KINOMEscan: BMX / KINOMEscan: BRK / KINOMEscan: BRSK1 / KINOMEscan: BRSK2 / KINOMEscan: CAMK1 / KINOMEscan: CAMK1D / KINOMEscan: CAMK1G / KINOMEscan: CAMK2A / KINOMEscan: CAMK2B / KINOMEscan: AAK1 / KINOMEscan: CAMK2D / KINOMEscan: CAMK2G / KINOMEscan: ABL1(F317I)-nonphosphorylated / KINOMEscan: ABL1(F317I)-phosphorylated / KINOMEscan: ABL1(F317L)-nonphosphorylated: unit: % Ctrl; conditions: kinase TLK1; compound concentration 10 µM
T1 construct: purchased KINOMEscan
T1 sequence (Q9UKI8 1-766): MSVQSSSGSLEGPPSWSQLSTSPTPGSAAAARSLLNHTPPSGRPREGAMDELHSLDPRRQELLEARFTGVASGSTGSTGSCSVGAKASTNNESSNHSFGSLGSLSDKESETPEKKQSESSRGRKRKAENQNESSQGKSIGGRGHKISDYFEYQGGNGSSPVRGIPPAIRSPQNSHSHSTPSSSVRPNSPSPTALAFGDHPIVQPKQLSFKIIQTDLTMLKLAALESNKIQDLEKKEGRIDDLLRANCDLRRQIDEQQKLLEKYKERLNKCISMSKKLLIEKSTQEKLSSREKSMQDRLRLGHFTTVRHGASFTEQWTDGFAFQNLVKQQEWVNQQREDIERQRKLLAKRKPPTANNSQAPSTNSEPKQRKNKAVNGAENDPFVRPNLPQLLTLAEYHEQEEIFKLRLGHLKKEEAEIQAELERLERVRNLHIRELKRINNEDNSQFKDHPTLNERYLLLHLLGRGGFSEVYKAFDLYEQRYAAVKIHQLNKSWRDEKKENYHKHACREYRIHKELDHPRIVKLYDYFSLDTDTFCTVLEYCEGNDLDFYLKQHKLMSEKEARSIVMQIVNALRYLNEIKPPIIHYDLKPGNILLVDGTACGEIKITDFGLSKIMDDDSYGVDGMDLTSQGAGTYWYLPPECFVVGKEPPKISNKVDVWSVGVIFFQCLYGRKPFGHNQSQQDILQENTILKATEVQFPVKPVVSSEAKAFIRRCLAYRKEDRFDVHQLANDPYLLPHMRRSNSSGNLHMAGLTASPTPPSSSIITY
Description: (§1) We assessed the selectivity of members of this scaffold using the KINOMEscan methodology across a near comprehensive panel of 442 kinases [[18,27]].

panel of 442 kinases [2] = biological target: T2, panel of 442 kinases (Homo sapiens, UniProt O14965); assay type: binding; parameters: KINOMEscan: ABL1(F317L)-phosphorylated / KINOMEscan: ABL1(H396P)-nonphosphorylated / KINOMEscan: ABL1(H396P)-phosphorylated / KINOMEscan: ABL1(M351T)-phosphorylated / KINOMEscan: ABL1(T315I)-phosphorylated / KINOMEscan: ABL1-nonphosphorylated / KINOMEscan: ABL1-phosphorylated / KINOMEscan: ACVR2A / KINOMEscan: ACVR2B / KINOMEscan: ADCK3 / KINOMEscan: ADCK4 / KINOMEscan: AKT1 / KINOMEscan: AKT3 / KINOMEscan: ALK / KINOMEscan: ARK5 / KINOMEscan: AURKA / KINOMEscan: AURKC / KINOMEscan: BIKE / KINOMEscan: BMPR1A / KINOMEscan: BMPR1B / KINOMEscan: BMX / KINOMEscan: BRK / KINOMEscan: BRSK1 / KINOMEscan: BRSK2 / KINOMEscan: CAMK1 / KINOMEscan: CAMK1D / KINOMEscan: CAMK1G / KINOMEscan: CAMK2A / KINOMEscan: CAMK2B / KINOMEscan: AAK1 / KINOMEscan: CAMK2D / KINOMEscan: CAMK2G / KINOMEscan: ABL1(F317I)-nonphosphorylated / KINOMEscan: ABL1(F317I)-phosphorylated / KINOMEscan: ABL1(F317L)-nonphosphorylated: unit: % Ctrl; conditions: Compound Concentration 10 µM
T2 construct: purchased KINOMEscan
T2 sequence (O14965 1-403): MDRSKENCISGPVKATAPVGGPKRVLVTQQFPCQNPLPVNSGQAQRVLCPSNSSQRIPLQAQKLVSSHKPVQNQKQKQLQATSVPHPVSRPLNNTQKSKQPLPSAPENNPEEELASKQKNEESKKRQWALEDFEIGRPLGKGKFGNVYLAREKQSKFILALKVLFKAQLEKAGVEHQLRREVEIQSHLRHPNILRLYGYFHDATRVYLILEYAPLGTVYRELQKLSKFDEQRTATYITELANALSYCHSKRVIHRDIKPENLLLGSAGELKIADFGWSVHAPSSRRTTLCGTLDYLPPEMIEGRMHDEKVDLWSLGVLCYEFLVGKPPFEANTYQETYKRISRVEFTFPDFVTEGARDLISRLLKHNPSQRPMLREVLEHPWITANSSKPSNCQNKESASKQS
Description: as §1

SMILES | % Ctrl, TLK1 (panel of 442 kinases [1]) | KINOMEscan: AURKA (panel of 442 kinases [2])
CCOc1cc(C(=O)N2CCC(N3CCN(C)CC3)CC2)ccc1Nc1ncc2c(n1)N(C1CCCC1)c1ccccc1C(=O)N2C [Compound 26] | 90 % Ctrl | 100
COc1cc(C(=O)N2CCC(N3CCN(C)CC3)CC2)ccc1Nc1ncc2c(n1)N1CCc3cccc(c31)C(=O)N2C [Compound 24] | – | 28
COc1cc(C(=O)N2CCC(N3CCN(C)CC3)CC2)ccc1Nc1ncc2c(n1)N(C)c1ccccc1C(=O)N2C [15 (LRRK2-IN-1)] | 100 % Ctrl | 1.2
COc1cc(C(=O)N2CCC(N3CCN(C)CC3)CC2)ccc1Nc1ncc2c(n1)N(C1CCCC1)c1ccccc1C(=O)N2C [Compound 25, 11-cyclopentyl-2-((2-methoxy-4-(4-(4-methylpiperazin-1-yl)piperidine-1-carbonyl)phenyl)amino)-5-methyl-5H-benzo[e]pyrimido[5,4-b][1,4]diazepin-6(11H)-one] | 74 % Ctrl | 28
